This is an account of results in US20050113292A1 (priority 2003, published 2005).

Assay [1] concerns HIV-1 mediated cell-cell fusion (R8 virus). The following applies: mediated cell-cell fusion (R8 virus).
Assay [2] relates to T-tropic (R8) HIV-1. The following applies: T-tropic (R8).
The subject of assay [3] is NL4-3 (MT-4).
Assay [4] relates to R9 HIV-1 virus. The assay is classed as cell-based. The following applies: 0.5 µM.
The subject of assay [5] is T-20 Resistant Virus.
Assay [6] relates to M-tropic (BAL) HIV-1. The following applies: M-tropic (BAL).
For assay [7], the system named is HIV. The following applies: human, in vivo; cited from earlier work.
The target of assay [8] is gp41 of T-tropic HIV-1 R8 virus (HIV-1 (R8)). Briefly: cell-based or functional assay.
For assay [9], the target named is gp41 of M-tropic HIV-1 BAL virus (HIV-1 (BAL)). Briefly: cell-based or functional assay.
In assay [10] the target is gp41 of HIV-1 NL4-3 (HIV-1 (NL4-3)). Kind of assay: cell-based or functional assay.
In assay [11] the target is gp41 of T20-resistant HIV-1 virus (HIV-1 (T20-resistant virus)). Briefly: cell-based or functional assay.
Assay [12] has as its system HIV-1 92HT599.24.
The test system of assay [13] is T20-resistant virus.
Assay [14] concerns HIV-1 pNLHxB.
Assay [15] concerns HIV-1 92MW965.26.
The test system of assay [16] is HIV-1 92UG024.2.
In assay [17] the test system is HIV-1 89.6.
The test system of assay [18] is HIV-1 NL4-3.

As a reminder, the EC50 is the concentration needed to bring the measured effect to its halfway point. A low value points to an effect from little substance. In general, IC50 refers to the concentration needed to halve the response being measured.

In [1], enfuvirtide had an EC50 of 22.1 nM. The 50% inhibitory concentration (IC50) in assay [1] stood at 22.1 nM; in assay [2], 76.4 nM; in assay [3], 4.31 nM; in assay [5] it was 32.3 nM; in assay [6], 3.9 nM. Further, the “percentage of inhibition of cell infection” value in assay [4] is ~100%. In addition, in [5], the Ratio amounted to 7.50. The “reduction of plasma HIV RNA levels” value in assay [7] is given as ≤ 2 logs.

As to “DP178 (from UniProt P04578 638-673) (peptide)”, in assay [8], the IC50, HIV-1 mediated cell-cell fusion (syncytium formation), R8 virus was found to be 22.1 nM and the IC50, single-cycle MAGI infectivity, R8 virus amounted to 76.4 nM. Moreover, the IC50, single-cycle MAGI infectivity, BAL virus in [9] is 3.9 nM. In addition, in [10], the IC50, single-cycle MAGI infection of P4R5 cells, NL4-3 (MT-4) was found to be 4.31 nM. Also, the IC50, single-cycle MAGI infection of P4R5 cells, T-20 Resistant Virus in [11] came to 32.3 nM.

`CC[C@H](C)[C@H](NC(=O)[C@H](CC(C)C)NC(=O)[C@H](CO)NC(=O)[C@H](Cc1c[nH]cn1)NC(=O)[C@@H](NC(=O)[C@H](CC(C)C)NC(=O)[C@H](CO)NC(=O)[C@@H](NC(=O)[C@H](Cc1ccc(O)cc1)NC(=O)[C@H](CC(N)=O)NC(=O)[C@H](CC(N)=O)NC(=O)[C@@H](NC(=O)[C@H](CCC(=O)O)NC(=O)[C@H](CCCNC(=N)N)NC(=O)[C@H](CC(=O)O)NC(=O)[C@H](Cc1c[nH]c2ccccc12)NC(=O)[C@H](CCC(=O)O)NC(=O)[C@H](CCSC)NC(=O)[C@H](Cc1c[nH]c2ccccc12)NC(=O)[C@@H]1CSC(C(=O)N[C@@H](CCCCNC(=O)CCCCCNC(=O)CCCCCNC(=O)[C@H](CCCCNC(=O)CCCCCNC(=O)CCCCCNC(=O)CCCCCNC(=O)[C@H](CCCCN)NC(=O)C2N[C@H](C(=O)N[C@@H](Cc3c[nH]c4ccccc34)C(=O)N[C@@H](CCSC)C(=O)N[C@@H](CCC(=O)O)C(=O)N[C@@H](Cc3c[nH]c4ccccc34)C(=O)N[C@@H](CC(=O)O)C(=O)N[C@@H](CCCNC(=N)N)C(=O)N[C@@H](CCC(=O)O)C(=O)N[C@H](C(=O)N[C@@H](CC(N)=O)C(=O)N[C@@H](CC(N)=O)C(=O)N[C@@H](Cc3ccc(O)cc3)C(=O)N[C@H](C(=O)N[C@@H](CO)C(=O)N[C@@H](CC(C)C)C(=O)N[C@H](C(=O)N[C@@H](Cc3c[nH]cn3)C(=O)N[C@@H](CO)C(=O)N[C@@H](CC(C)C)C(=O)N[C@H](C(=O)N[C@@H](CCC(=O)O)C(=O)N[C@@H](CCC(=O)O)C(=O)N[C@@H](CO)C(=O)N[C@@H](CCC(N)=O)C(=O)N[C@@H](CC(N)=O)C(=O)N[C@@H](CCC(N)=O)C(=O)N[C@@H](CCC(N)=O)C(=O)N[C@@H](CCC(=O)O)C(=O)N[C@@H](CCCCN)C(=O)N[C@@H](CC(N)=O)C(=O)N[C@@H](CCC(=O)O)C(=O)N[C@@H](CCC(N)=O)C(=O)N[C@@H](CCC(=O)O)C(=O)N[C@@H](CC(C)C)C(=O)N[C@@H](CC(C)C)C(=O)O)[C@@H](C)CC)[C@@H](C)CC)[C@@H](C)O)[C@@H](C)CC)CS2)NC(=O)C2N[C@H](C(=O)N[C@@H](Cc3c[nH]c4ccccc34)C(=O)N[C@@H](CCSC)C(=O)N[C@@H](CCC(=O)O)C(=O)N[C@@H](Cc3c[nH]c4ccccc34)C(=O)N[C@@H](CC(=O)O)C(=O)N[C@@H](CCCNC(=N)N)C(=O)N[C@@H](CCC(=O)O)C(=O)N[C@H](C(=O)N[C@@H](CC(N)=O)C(=O)N[C@@H](CC(N)=O)C(=O)N[C@@H](Cc3ccc(O)cc3)C(=O)N[C@H](C(=O)N[C@@H](CO)C(=O)N[C@@H](CC(C)C)C(=O)N[C@H](C(=O)N[C@@H](Cc3c[nH]cn3)C(=O)N[C@@H](CO)C(=O)N[C@@H](CC(C)C)C(=O)N[C@H](C(=O)N[C@@H](CCC(=O)O)C(=O)N[C@@H](CCC(=O)O)C(=O)N[C@@H](CO)C(=O)N[C@@H](CCC(N)=O)C(=O)N[C@@H](CC(N)=O)C(=O)N[C@@H](CCC(N)=O)C(=O)N[C@@H](CCC(N)=O)C(=O)N[C@@H](CCC(=O)O)C(=O)N[C@@H](CCCCN)C(=O)N[C@@H](CC(N)=O)C(=O)N[C@@H](CCC(=O)O)C(=O)N[C@@H](CCC(N)=O)C(=O)N[C@@H](CCC(=O)O)C(=O)N[C@@H](CC(C)C)C(=O)N[C@@H](CC(C)C)C(=O)O)[C@@H](C)CC)[C@@H](C)CC)[C@@H](C)O)[C@@H](C)CC)CS2)C(N)=O)N1)[C@@H](C)CC)[C@@H](C)O)[C@@H](C)CC)C(=O)N[C@@H](CCC(=O)O)C(=O)N[C@@H](CCC(=O)O)C(=O)N[C@@H](CO)C(=O)N[C@@H](CCC(N)=O)C(=O)N[C@@H](CC(N)=O)C(=O)N[C@@H](CCC(N)=O)C(=O)N[C@@H](CCC(N)=O)C(=O)N[C@@H](CCC(=O)O)C(=O)N[C@@H](CCCCN)C(=O)N[C@@H](CC(N)=O)C(=O)N[C@@H](CCC(=O)O)C(=O)N[C@@H](CCC(N)=O)C(=O)N[C@@H](CCC(=O)O)C(=O)N[C@@H](CC(C)C)C(=O)N[C@@H](CC(C)C)C(=O)O` (stereo partly drawn) [Compound 3α3-C34]: the IC50 in [12] was 0.25 nM; in assay [13], 0.47 nM; in [14], 0.76 nM; in assay [15], 0.16 nM; in [3] it was 1.59 nM; in assay [16], 0.6 nM. The half-maximal inhibitory concentration (IC50) is 10.2 nM in assay [17], 0.73 nM in [18] and 0.34 nM in assay [5]. Besides, the Ratio in assay [5] stood at 0.21.
